In ChEMBL document CHEMBL6071182, “Design, Biological Characterization, and Discovery of Novel Cyclohexenyl Derivatives as Kinesin KIF18A Inhibitors for the Treatment of Ovarian Cancer” (ACS Med Chem Lett, 2024):
≈ marks a conversion by molar mass, not a printed value.

Columns and labels:
[1] = Cmax in Sprague-Dawley rat at 2 mg/kg, po and 1 mg/kg, iv; type: ADME, organism-based; settings: in vivo
[2] = AUClast in Sprague-Dawley rat at 2 mg/kg, po and 1 mg/kg, iv; type: ADME, organism-based; settings: in vivo
[3] = Half life in Sprague-Dawley rat at 2 mg/kg, po and 1 mg/kg, iv; type: ADME, organism-based; settings: in vivo
[4] = Oral bioavailability in Sprague-Dawley rat at 2 mg/kg; type: ADME, organism-based; settings: in vivo
NUGC-3 = assay: Antiproliferative activity against human NUGC-3 cells assessed as chemiluminescence measured after 4 days incubation by Celltiter Glo assay; settings: NUGC-3, 96 h
NCI-N87 = assay: Antiproliferative activity against human NCI-N87 cells assessed as chemiluminescence measured after 4 days incubation by Celltiter Glo assay; settings: NCI-N87, 96 h
HCC1954 = assay: Antiproliferative activity against human HCC1954 cells assessed as chemiluminescence measured after 4 days incubation by Celltiter Glo assay; settings: HCC1954, 96 h
BXPC-3 = assay: Antiproliferative activity against human BxPC-3 cells assessed as chemiluminescence measured after 4 days incubation by Celltiter Glo assay; settings: BXPC-3, 96 h
Cytochrome P450 3A4 [5] = target: T1, Cytochrome P450 3A4 (Homo sapiens, UniProt P08684); assay: Inhibition of CYP3A4 (unknown origin) assessed as reduction in midazolam metabolism; type: ADME
Cytochrome P450 3A4 [6] = target: T1, Cytochrome P450 3A4; assay: Inhibition of CYP3A4 (unknown origin) assessed as reduction in testosterone metabolism; type: ADME
[7] = Half life in human liver microsomes; type: ADME, Microsome
[8] = Half life in monkey liver microsomes; type: ADME, Macaca mulatta, Microsome; settings: rhesus monkey
[9] = Half life in dog liver microsomes; type: ADME, Canis lupus familiaris, Microsome
[10] = Half life in rat liver microsomes; type: ADME, Microsome
[11] = Half life in mouse liver microsomes; type: ADME, Microsome
[12] = target: Voltage-gated inwardly rectifying potassium channel KCNH2 (Homo sapiens, UniProt Q12809); assay: Inhibition of hERG; type: toxicity
[13] = Solubility in compound in FassIF; type: physicochemical
[14] = Solubility in compound in FessIF; type: physicochemical
[15] = Solubility in compound in FassGF; type: physicochemical
[16] = Permeability of compound across apical to basolateral side in human Caco-2 cells; type: ADME, cell-based; settings: read-out: permeability
[17] = Permeability of compound across basolateral to apical side in human Caco-2 cells; type: ADME, cell-based; settings: read-out: permeability
[18] = Plasma protein binding in human; type: ADME, cell-free; settings: read-out: PPB (converted)
[19] = Plasma protein binding in monkey; type: ADME, cell-free, Macaca mulatta; settings: rhesus monkey, read-out: PPB (converted)
[20] = Plasma protein binding in dog; type: ADME, cell-free, Canis lupus familiaris; settings: read-out: PPB (converted)
[21] = Plasma protein binding in rat; type: ADME, cell-free; settings: read-out: PPB (converted)
[22] = Plasma protein binding in mouse; type: ADME, cell-free; settings: read-out: PPB (converted)
[23] = Cmax in ICR mouse at 2 mg/kg, po and 1 mg/kg, iv; type: ADME, organism-based; settings: in vivo
[24] = AUC in ICR mouse at 2 mg/kg, po and 1 mg/kg, iv; type: ADME, organism-based; settings: in vivo
[25] = Half life in ICR mouse at 2 mg/kg, po and 1 mg/kg, iv; type: ADME, organism-based; settings: in vivo
[26] = Oral bioavailability in ICR mouse at 2 mg/kg; type: ADME, organism-based; settings: in vivo
[27] = Cmax in Beagle dog at 2 mg/kg, po and 1 mg/kg, iv; type: ADME, organism-based, Canis lupus familiaris; settings: in vivo
[28] = AUC in Beagle dog at 2 mg/kg, po and 1 mg/kg, iv; type: ADME, organism-based, Canis lupus familiaris; settings: in vivo
[29] = Half life in Beagle dog at 2 mg/kg, po and 1 mg/kg, iv; type: ADME, organism-based, Canis lupus familiaris; settings: in vivo
[30] = Oral bioavailability in Beagle dog at 2 mg/kg; type: ADME, organism-based, Canis lupus familiaris; settings: in vivo
[31] = Cmax in Cynomolgus monkey at 2 mg/kg, po and 1 mg/kg, iv; type: ADME, organism-based, Macaca fascicularis; settings: in vivo
[32] = AUC in Cynomolgus monkey at 2 mg/kg, po and 1 mg/kg, iv; type: ADME, organism-based, Macaca fascicularis; settings: in vivo
[33] = Half life in Cynomolgus monkey at 2 mg/kg, po and 1 mg/kg, iv; type: ADME, organism-based, Macaca fascicularis; settings: in vivo
[34] = Oral bioavailability in Cynomolgus monkey at 2 mg/kg; type: ADME, organism-based, Macaca fascicularis; settings: in vivo
OVCAR-3 [35] = assay: In vivo antiproliferative activity against human OVCAR-3 cells xenografted in nude Balc/c mouse tumor model assessed as tumor growth inhibition at 30 mg/kg, po measured after 21 days; type: functional; settings: OVCAR-3, 504 h, time 21 day, read-out: TGI
OVCAR-3 [36] = assay: In vivo antiproliferative activity against human OVCAR-3 cells xenografted in po dosed nude Balc/c mouse tumor model assessed as reduction in tumor volume measured after 21 days; type: functional, organism-based; settings: dose 10-20 mg/kg, time 21.0 day, TDE = time-dependent effect
[37] = Toxicity in nude Balc/c mouse xenografted with human OVCAR-3 cells assessed as change in body weight at 10 to 30 mg/kg, po measured after 21 days; type: organism-based; settings: in vivo, 504 h, dose 10-30 mg/kg, time 21 day
[38] = Half life in Balb/c mouse at 10 mg/kg, po; type: ADME, organism-based; settings: in vivo
[39] = Half life in Balb/c mouse at 30 mg/kg, po; type: ADME, organism-based; settings: in vivo
[40] = Cmax in Balb/c mouse at 10 mg/kg, po; type: ADME, organism-based; settings: in vivo
[41] = Cmax in Balb/c mouse at 30 mg/kg, po; type: ADME, organism-based; settings: in vivo
[42] = AUC in Balb/c mouse at 10 mg/kg, po; type: ADME, organism-based; settings: in vivo
[43] = AUC in Balb/c mouse at 30 mg/kg, po; type: ADME, organism-based; settings: in vivo
cells = settings: Homo sapiens, OVCAR-3, 96 h
Description: Antiproliferative activity against KIF18A siRNA sensitive human OVCAR-3 cells assessed as decrease in nuclei number measured after 4 days incubation by Hoechst 33342 DNA dye based nuclear count assay (NCA)

T1 sequence (P08684 whole entry): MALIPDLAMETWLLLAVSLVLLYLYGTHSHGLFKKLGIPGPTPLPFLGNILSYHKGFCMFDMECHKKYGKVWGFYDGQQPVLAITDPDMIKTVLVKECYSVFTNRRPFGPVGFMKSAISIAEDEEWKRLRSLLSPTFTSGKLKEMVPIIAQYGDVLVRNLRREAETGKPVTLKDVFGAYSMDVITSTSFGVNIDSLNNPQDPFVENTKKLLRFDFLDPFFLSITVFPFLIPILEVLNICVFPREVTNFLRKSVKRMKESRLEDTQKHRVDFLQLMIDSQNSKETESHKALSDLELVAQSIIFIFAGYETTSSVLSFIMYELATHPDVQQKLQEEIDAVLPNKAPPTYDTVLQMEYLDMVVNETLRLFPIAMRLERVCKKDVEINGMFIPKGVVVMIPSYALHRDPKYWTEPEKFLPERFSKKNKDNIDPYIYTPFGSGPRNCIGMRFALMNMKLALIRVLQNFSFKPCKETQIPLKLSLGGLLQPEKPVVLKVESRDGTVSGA
Sequence of Voltage-gated inwardly rectifying potassium channel KCNH2 (Q12809 whole entry): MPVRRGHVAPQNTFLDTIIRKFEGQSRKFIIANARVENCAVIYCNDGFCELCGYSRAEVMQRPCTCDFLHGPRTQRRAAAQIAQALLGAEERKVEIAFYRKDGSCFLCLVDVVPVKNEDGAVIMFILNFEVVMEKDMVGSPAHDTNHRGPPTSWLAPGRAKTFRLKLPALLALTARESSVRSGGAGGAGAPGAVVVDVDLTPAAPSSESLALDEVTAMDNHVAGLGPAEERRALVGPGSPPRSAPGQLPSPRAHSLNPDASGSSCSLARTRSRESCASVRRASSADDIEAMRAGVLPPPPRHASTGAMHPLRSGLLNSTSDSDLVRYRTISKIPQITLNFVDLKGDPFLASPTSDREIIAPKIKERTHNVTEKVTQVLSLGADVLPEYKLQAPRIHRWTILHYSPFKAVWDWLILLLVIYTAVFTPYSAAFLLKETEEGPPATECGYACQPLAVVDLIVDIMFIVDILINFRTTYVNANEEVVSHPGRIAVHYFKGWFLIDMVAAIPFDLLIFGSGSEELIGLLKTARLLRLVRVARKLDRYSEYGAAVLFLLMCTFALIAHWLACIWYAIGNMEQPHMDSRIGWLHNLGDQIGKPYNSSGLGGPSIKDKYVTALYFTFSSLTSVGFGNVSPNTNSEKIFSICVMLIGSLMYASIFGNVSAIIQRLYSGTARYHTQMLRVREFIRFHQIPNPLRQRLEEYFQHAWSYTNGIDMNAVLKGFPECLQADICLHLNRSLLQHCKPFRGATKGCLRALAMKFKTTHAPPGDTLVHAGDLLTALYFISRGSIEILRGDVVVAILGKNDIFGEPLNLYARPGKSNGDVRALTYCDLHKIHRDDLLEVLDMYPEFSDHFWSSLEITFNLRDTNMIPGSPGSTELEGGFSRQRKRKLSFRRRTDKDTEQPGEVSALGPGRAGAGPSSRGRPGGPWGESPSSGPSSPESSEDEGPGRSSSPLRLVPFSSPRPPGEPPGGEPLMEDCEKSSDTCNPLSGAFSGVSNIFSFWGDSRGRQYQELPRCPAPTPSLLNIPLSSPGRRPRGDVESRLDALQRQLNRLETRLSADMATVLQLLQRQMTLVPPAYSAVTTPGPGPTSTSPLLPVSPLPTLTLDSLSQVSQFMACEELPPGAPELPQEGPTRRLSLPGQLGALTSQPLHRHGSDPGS

Cc1cc(NC(=O)c2ccc(NS(=O)(=O)CCO)cc2C2=CCC3(CC2)CC3)nc(N2CCC(F)(F)CC2)c1
Cmax [1]: 552 ng/mL | AUC(0-t) [2]: 5840 ng·h/mL | half-life [3]: 2.7 h | bioavailability [4]: 73% | IC50 (NUGC-3): 0.016 µM | IC50 (NCI-N87): 8.61 µM | IC50 (HCC1954): 0.014 µM | IC50 (BXPC-3): 8.61 µM | IC50 (Cytochrome P450 3A4 [5]): 22.4 µM | IC50 (Cytochrome P450 3A4 [6]): 23 µM | half-life [7]: 0.38 h | half-life [8]: 0.203 h | half-life [9]: 2.21 h | half-life [10]: 1.03 h | half-life [11]: 1.47 h | IC50 [12]: > 30 µM | solubility [13]: 18.5 µM (≈ 10.4 µg/mL) | solubility [14]: 43.6 µM (≈ 24.4 µg/mL) | solubility [15]: 3.3 µM (≈ 1.85 µg/mL) | Papp A→B [16]: < 0.01 ×10⁻⁶ cm/s | Papp B→A [17]: 0.49 ×10⁻⁶ cm/s | fraction unbound [18]: 0.0004 | fraction unbound [19]: 0.0008 | fraction unbound [20]: 0.0007 | fraction unbound [21]: 0.0023 | fraction unbound [22]: 0.0011 | Cmax [23]: 393 ng/mL | AUC [24]: 3340 ng·h/mL | half-life [25]: 4.6 h | bioavailability [26]: 68.2% | Cmax [27]: 1150 ng/mL | AUC [28]: 11500 ng·h/mL | half-life [29]: 7.6 h | bioavailability [30]: 76.9% | Cmax [31]: 478 ng/mL | AUC [32]: 2850 ng·h/mL | half-life [33]: 4.5 h | bioavailability [34]: 40.2% | inhibition in vivo at 30 mg/kg (OVCAR-3 [35]): 113% | Activity (OVCAR-3 [36]): Tde | Activity [37]: Non-Toxic | half-life [38]: 3.38 h | half-life [39]: 6.38 h | Cmax [40]: 2160 ng/mL | Cmax [41]: 4040 ng/mL | AUC [42]: 27700 ng·h/mL | AUC [43]: 54400 ng·h/mL | EC50 (cells): 0.0647 µM
